From patent US12534477B2, “Compound having KHK inhibitory effect” (HANGZHOU ZHONGMEIHUADONG PHARMACEUTICAL CO., LTD., priority 2019, dated 2026) come the findings set out here.

The target in one series is CYP1A2 (Homo sapiens (Human), UniProt P05177). In kind it is in vitro ADME. The settings on record: human, microsomes, 10 min. On the procedure:
The inhibitory effect of test compounds on the activity of human hepatic microsomal cytochrome P450 isozymes (CYP1A2, CYP2C9, CYP2C19, CYP2D6 and CYP3A4) was determined.
First, the test compound (10 mM) was diluted in gradient to prepare working solutions (100×final concentration) with working solution concentrations: 5, 1.5, 0.5, 0.15, 0.05, 0.015, 0.005 mM, respectively, and at the same time, working solutions of each positive inhibitor of P450 isozymes (CYP1A2, CYP2C9, CYP2C19, CYP2D6 and CYP3A4) and its specific substrate mixture were prepared. Human liver microsomes frozen in a −80° C. refrigerator were thawed on ice, and diluted with PB (phosphate buffer) after all the human liver microsomes were dissolved, to prepare a working solution at a certain concentration (0.253 mg/mL). 20 μl substrate mixture was added to the reaction plate (20 μL PB was added to the Blank wells) while 158 μL human liver microsome working solution was added to the reaction plate which was placed on ice for later use. At this time, 2 μL of each concentration of the test compound (N=1) and the specific inhibitor (N=2) were added to the corresponding wells, and the corresponding organic solvents were added to the groups without inhibitors (the test compound or the positive inhibitor) as control samples (1:1 DMSO:MeOH for the test compound control sample, and 1:9 DMSO:MeOH for the positive control sample). After pre-incubation in 37° C. water bath for 10 min, 20 μL coenzyme factor (NADPH) solution was added to the reaction plate, and incubated in 37° C. water bath for 10 min. 400 μL cold acetonitrile solution (200 ng/mL Tolbutamide and Labetalol as the internal standard) was added to stop the reaction. The reaction plate was placed on a shaker and shaken for 10 min. The mixture was centrifuged at 4,000 rpm for 20 min, and 200 μl the supernatant was added to 100 μL water for sample dilution. Finally, the plate was sealed, shaken, mixed well and detected by LC/MS/MS.

Series [1] can be described thus: Liver-blood ratio, tissue distribution in rats. In kind it is in vivo, SD rats. The settings on record: SD, rat, 1 mg/kg, PO 1 mpk.
The mark [2] stands for this setting: brain, read-out: Brain tissue concentration.
The mark [3] stands for this setting: brain/plasma, read-out: Brain-blood ratio.
Where [4] appears, read: liver, read-out: Liver tissue concentration.
[5] abbreviates: liver/plasma, read-out: Liver-blood ratio.
Where [6] appears, read: plasma, read-out: Plasma concentration.

What is called pIC50 is the negative decadic logarithm of the IC50, by convention in mol/L.

The structures appear in SMILES notation. pIC50: −log10 of the molar value. Read-outs that look alike come from different tables or passages of the source.

CYP1A2, sequence (P05177 whole entry): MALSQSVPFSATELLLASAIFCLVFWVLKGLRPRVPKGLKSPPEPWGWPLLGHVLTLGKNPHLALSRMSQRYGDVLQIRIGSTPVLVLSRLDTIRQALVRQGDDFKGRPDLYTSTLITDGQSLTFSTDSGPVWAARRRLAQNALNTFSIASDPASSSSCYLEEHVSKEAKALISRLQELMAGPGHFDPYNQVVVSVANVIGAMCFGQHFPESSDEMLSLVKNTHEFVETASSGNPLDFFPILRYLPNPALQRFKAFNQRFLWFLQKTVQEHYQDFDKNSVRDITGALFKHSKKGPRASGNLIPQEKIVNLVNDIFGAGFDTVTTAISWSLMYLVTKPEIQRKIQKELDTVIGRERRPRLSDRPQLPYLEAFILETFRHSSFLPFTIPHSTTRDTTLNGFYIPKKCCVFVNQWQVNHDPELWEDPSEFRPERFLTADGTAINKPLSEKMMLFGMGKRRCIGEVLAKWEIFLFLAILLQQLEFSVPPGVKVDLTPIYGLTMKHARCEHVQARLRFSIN

For `C[C@H]1CCN1c1nc(N2C[C@@H]3[C@@H](CC(=O)O)[C@@H]3C2)c2ccsc2n1` [WX004], at CYP1A2, the pIC50 is < 4.30. For the same molecule, in series [1] (setting [2]), the concentration at 1.5 h stood at 0.105 µM, the concentration at 2 h stood at 0.148 µM and the concentration at 6 h stood at 0.071 µM. In addition, in series [1] (setting [3]), the Kp at 1.5 h was 0.022, the Kp at 2 h was found to be 0.019 and the Kp at 6 h is 0.023. Besides, in series [1] (setting [4]), the concentration at 1.5 h came to 4.42 µM, the concentration at 2 h is 6.37 µM and the concentration at 6 h was determined as 3.9 µM. In series [1] (setting [5]), the Kp at 1.5 h turned out to be 0.943, the Kp at 2 h is 0.821 and the Kp at 6 h stood at 1.22. In series [1] (setting [6]), the concentration at 1.5 h was found to be 4.67 µM, the concentration at 2 h amounted to 7.75 µM and the concentration at 6 h is 3.67 µM.
